Laboratory results as given in article PMC10734620, “A blinded in vitro analysis of the intrinsic immunogenicity of hepatotoxic drugs: implications for preclinical risk assessment” (Toxicological Sciences, 2023).
Where two headings read alike, the source gives them in different places.

Tests used:
[1] = tested on: PBMC; assay: Inhibition of mitogen-induced (PHA-P) PBMC proliferation; format: cell-based, human; conditions: compound 48 h, then PHA-P 10 µg/ml 24 h, [3H]-thymidine
Procedure: Test compounds were provided by GSK to Liverpool as blinded dry powders with a given volume of dimethyl sulfoxide to prepare stock concentrations of 50 mM. Stock concentrations were aliquoted and stored at −80°C until required for experiments. A fresh aliquot was utilized for every experiment. PBMC from 3 healthy donors were used to determine the maximum tolerated concentration of each test compound. PBMC (0.15 × 10^6) were cultured with graded compound concentrations in U-bottomed 96-well plates for 48 h at 37°C, 5% CO2. Phytohemagglutinin (PHA-P; 10 µg/ml) was added to cells for a further 24 h followed by assessment of proliferation through the addition of [^3H]-thymidine (0.5 µCi/well) for the last 16 h. […] The IC50 value was then calculated using 4-parameter logistic curve-fitting model (GraphPad prism 7.0).
Figure 2. Toxicity profiles of training and test compounds. […] PHA-P (10 µg/ml) was added to cells for a further 24 h followed by assessment of proliferation through the addition of [^3H]-thymidine (0.5 µCi/well) for the last 16 h. […] 4-parameter logistic functions were fit to the data and IC50 values were then reported (GraphPad prism 7.0). […] LPB (Liverpool Pharmacology Biobank) represents the unique identifier for PBMC isolated from each consented healthy blood donor for drug safety research. Percentage proliferation for each compound concentration = Proliferation following drug exposure divided by proliferation after cell culture media exposure multiplied by 100.

[2] = tested on: T-cell clones; assay: Generation and drug-specificity testing of T-cell clones; format: cell-based, human; conditions: priming assay and/or T-cell clones
Procedure: To establish T-cell lines, PBMC from 3 healthy HLA-typed (Table 2) donors were cultured with individual test compounds (at concentrations not associated with inhibition of mitogen-driven PBMC proliferation; see Figure 2 for individual concentrations) for 14 days. Medium was supplemented with IL-2 (50 U/ml; Peprotech, New Jersey) to maintain drug-specific T-cell expansion. T-cell clones were generated from the T-cell lines by serial dilution and repetitive mitogen stimulation ([Schnyder et al., 2000]). T-cells (0.3–3 cells/well) were cultured with irradiated allogenic PBMC (5 × 10^4/well) and PHA-P (1 µg/ml) in IL-2 containing medium. The medium was supplemented with fresh IL-2 on days 6, 9 and every 2 days thereafter. Growing cultures were expanded further with a second round of mitogen stimulation and tested for drug-specific T-cell proliferation on day 28. Cloned T-cells (5 × 10^4/well) were cultured with irradiated autologous EBV-transformed B-cells (1 × 10^4/well) and drug in duplicate wells for 48 h. Wells containing medium served as a negative control. Proliferation was measured by the addition of [^3H]-thymidine followed by scintillation counting. T-cell clones with SI ≥ 2 were considered drug-responsive and expanded using irradiated allogeneic PBMC for dose-response studies and assessment of CD4/8 phenotyping.
Proliferation was measured by the addition of [^3H]-thymidine as described above.
T-cell clones were washed with FACS buffer and CD phenotype determined using flow cytometry. Cells (10 000) were acquired using a FACSCanto II (BD Biosciences) and data analyzed by FACSDiva software.
Figure 6. Generation of training compound (nitroso sulfamethoxazole, vancomycin, and Bandrowski’s base)-specific T-cell clones. PBMC from 3 healthy donors were cultured with training compounds and supplemented with IL-2 (50 U/ml) for 14 days. T-cell clones were generated from the T-cell lines by serial dilution and repetitive mitogen stimulation. T-cells (0.3–3 cells/well) were stimulated with irradiated allogenic PBMC (5 × 10^4/well) and phytohemagglutinin (1 µg/ml). Well growing cultures were subjected to a second round of expansion then tested for drug-specific T-cell proliferation. Proliferation was measured by the addition of ^3H-thymidine followed by scintillation counting. A–C, Initial specificity test for nitroso sulfamethoxazole, vancomycin, and Bandrowski’s base clones. T-cell clones showing stimulation index, SI ≥ 2 were considered drug-responsive and expanded and used in dose-response studies. SI = Drug-induced T-cell proliferation divided by T-cell proliferation in cell culture media. […] T-cell activation was determined using [^3H]-thymidine incorporation.
Figure 7. […] PBMC from 3 healthy donors were cultured with test compounds and supplemented with IL-2 (50 U/ml) for 14 days. T-cell clones were generated from the T-cell lines by serial dilution and repetitive mitogen stimulation. T-cells (0.3–3 cells/well) were stimulated with irradiated allogenic PBMC (5 × 10^4/well) and phytohemagglutinin (1 µg/ml). Well growing cultures were subjected to a second round of expansion then tested for drug-specific T-cell proliferation. Proliferation was measured by the addition of ^3H-thymidine followed by scintillation counting. […] T-cell activation was determined using [^3H]-thymidine incorporation.

[3] = set-up: method as in Sakatis et al., 2012; Schofield et al., 2021; conditions: Positive = above the threshold of concern; assays not listed negative; ref Sakatis et al., 2012; Schofield et al., 2021; cited from earlier work
[4] = set-up: method as in FDA DILIrank datasets; conditions: ref FDA DILIrank datasets; cited from earlier work
[5] = set-up: method as in earlier work; conditions: ref National Institute of Diabetes and Digestive and Kidney Diseases (2012); cited from earlier work
[6] = tested on: naïve T-cells; assay: Priming of naïve human T-cells (dendritic cell-T-cell coculture); format: cell-based; conditions: for Proliferation of primed T-cells, drug- vs medium-restimulated wells: 14 days priming, restimulation 48 h at single concentration, 48 wells, [3H]-thymidine; for Proliferation in medium restimulated wells after priming: primed 2 weeks, medium restimulation
Procedure: CD14+ monocytes were positively selected using CD14 antibody-conjugated microbeads. This was followed by the depletion of CD25+ cells from the CD14- population and the negative selection of CD45RA+ naïve T-cells. […] Dendritic cells were generated by culturing monocytes with a cocktail of GM-CSF (800 U/ml) and IL-4 (800 U/ml) in culture media for 6 days. Both cytokines were purchased from Peprotech (New Jersey). A maturation cocktail of TNF-α (25 ng/ml) and LPS (1 µg/ml) was added for 16 h before establishing the T-cell priming culture. Dendritic cells (8 × 10^3 per well) were cultured with naïve T-cells (1 × 10^5 per well) and the test compounds in a 96-well U-bottom tissue culture plate for 14 days at 37°C, 5% CO2. Cells were then washed extensively to remove unbound drug and cultures were restimulated with test compound or medium control (48 wells) for 48 h. Subsequent experiments were performed with training compounds to investigate the dose-dependent stimulation of naïve T-cells. In these experiments, T-cells were cultured with 3 concentrations of the test compound and medium (negative control) during the restimulation step. T-cell proliferative responses were determined by addition of [^3H]-thymidine (0.5 µCi/well) for the final 16 h of the culture period. Plates were harvested and counted as described above. […] Student’s t test was performed to determine statistical significance of T-cell proliferation when comparing medium- and drug-treated cultures (*p ≤ .05; **p ≤ .005; ***p < .001).
Figure 3. Naïve T-cell priming with training compounds. CD14+ monocytes were utilized to generate dendritic cells with a cocktail of GM-CSF (800 U/ml) and IL-4 (800 U/ml) in culture media for 6 days. […] A, Nitroso sulfamethoxazole. B, Vancomycin. C, Bandrowski’s base. D, Carbamazepine. E, Piperacillin. The degree of naïve T-cell priming was determined by comparing the counts per minutes (cpm) of drug and media-treated cultures using a beta counter. Student’s t test was performed to determine statistical significance (*p ≤ .05; **p ≤ .005; ***p < .001). Each data point represents T-cells proliferation in individual well of a 96 U-bottomed plate.
Figure 4. Dose-dependent stimulation of primed T-cells with training compound. […] Primed cells were washed extensively and then restimulated with 3 drug concentrations (low, medium, and high) for 48 h followed by determination of T-cell activation by [^3H]-thymidine incorporation. Each data point represents T-cells proliferation in individual well of a 96 U-bottomed plate.
Figure 5. Naïve T-cell priming with test compounds. […] B, Dacarbazine. […] F, Iproniazid. G, Mepivacaine. H, Nevirapine. […] J, Phenoxybenzamine. Primed cells were washed extensively and then restimulated medium or drug for 48 h followed by determination of T-cell activation by [^3H]-thymidine incorporation. Each data point represents T-cells proliferation in individual well of a 96 U-bottomed plate.

[7] = Homo sapiens, PBMC, PBMC from 3 healthy donors, read-out: IC50, inhibition of mitogen-driven PBMC proliferation
[8] = PBMC from 3 healthy donors, read-out: IC50, inhibition of mitogen-driven PBMC proliferation

Compound | IC50 [1, 7] [µM] | IC50 [1, 8] [µM] | Overall immunogenicity call in T-cell assays [2] | Routine Assays that are Positive (GSK) [3] | FDA Clinical Hepatotoxicity Concern [4] | LiverTox annotation: likelihood as cause of clinically apparent liver injury [5] | IC50 ([1]; PBMC from 3 healthy donors, listed as iproniazid, read-out: IC50, inhibition of mitogen-driven PBMC proliferation) [µM] | Proliferation of primed T-cells, drug- vs medium-restimulated wells [6] | Proliferation in medium restimulated wells after priming [6] | IC50 ([1]; PBMC from 3 healthy donors, listed as mepivacaine, read-out: IC50, inhibition of mitogen-driven PBMC proliferation) [µM] | IC50 ([1]; PBMC from 3 healthy donors, listed as nevirapine, read-out: IC50, inhibition of mitogen-driven PBMC proliferation) [µM] | IC50 ([1]; Homo sapiens, PBMC, read-out: IC50, inhibition of mitogen-driven PBMC proliferation, PBMC from 3 healthy donors) [µM] | IC50 ([1]; read-out: IC50, inhibition of mitogen-driven PBMC proliferation, PBMC from 3 healthy donors) [µM]
CN(C)/N=N/c1[nH]cnc1C(N)=O [Dacarbazine] | 15 | ≤ 20 | did not flag these compounds as immunogenic | Reactive metabolite; 3D hepatocyte spheroid | Most | Highly likely cause of clinically apparent liver injury. May be immunologically mediated as usually occurs with second or third cycle and accompanied by eosinophilia | – | – | – | – | – | – | –
COc1cc([C@@H]2c3cc4c(cc3[C@@H](O[C@@H]3O[C@@H]5CO[C@@H](C)O[C@H]5[C@H](O)[C@H]3O)[C@H]3COC(=O)[C@H]23)OCO4)cc(OC)c1O [Etoposide] | 20 | ≤ 20 | no false positives | – | Less | Probable cause of clinically apparent liver injury. Absence of immunoallergic features (rash, fever, eosinophilia) and of autoantibodies noted. Uncommon to have features of hypersensitivity | – | – | – | – | – | – | –
CC(C)NNC(=O)c1ccncc1 [Iproniazid] | – | 290 | did not flag these compounds as immunogenic | None | Most | – | ≥ 50 | increases in proliferation with drug restimulation was not observed | high level of proliferation | – | – | – | –
Cc1cccc(C)c1NC(=O)C1CCCCN1C (centres unmarked) [Mepivacaine] | – | 210 | no false positives | None | No | Unlikely to be a cause of clinically apparent liver injury | – | increases in proliferation with drug restimulation was not observed | high level of proliferation | ≥ 50 | – | – | –
Cc1ccnc2c1NC(=O)c1cccnc1N2C1CC1 [Nevirapine] | – | 110 | did not flag these compounds as immunogenic | None | Most | Well-known cause of clinically apparent liver injury. Immunoallergic hepatitis associated with specific HLA types | – | increases in proliferation with drug restimulation was not observed | high level of proliferation | – | ≥ 50 | – | –
O=C1CN(/N=C/c2ccc([N+](=O)[O-])o2)C(=O)N1 [Nitrofurantoin] | 15 | ≤ 20 | did not flag these compounds as immunogenic | – | Most | Well-known cause of clinically apparent liver injury. Oxidative free radical formation. Some cases show autoimmune etiology with linkage to HLA-DR6 and DR2 | – | – | – | – | – | – | –
CC(COc1ccccc1)N(CCCl)Cc1ccccc1 (centres unmarked) [Phenoxybenzamine] | – | – | no false positives | Reactive metabolite | No | – | – | – | – | – | – | 15 | ≤ 20
